Results from US8039505B2, “Compounds for modulating T-cells” (University of Utah Research Foundation, priority 2007, dated 2011).
“And” between values parts separate entries of the source, which are not always exact repeats. Identical values can stand only once.

Assay: Pharmacokinetics in male Swiss Albino mouse, intravenous and oral (LC-MS/MS of plasma)
Type: in vivo
Settings: for Individual plasma concentration: individual mice; for Mean plasma concentration: N = 3
Description: The pharmacokinetics of 1H-indole-3-carbaldehyde quinolin-8-ylhydrazone (Compound C3) was evaluated following intravenous (3 mg/kg) and oral (15 mg/kg) solution administration of 1H-indole-3-carbaldehyde quinolin-8-ylhydrazone in male Swiss Albino mouse. The effect of the Test Item, 1H-indole-3-carbaldehyde quinolin-8-ylhydrazone on complete blood count (CBC) was also evaluated. Pharmacokinetic phase consisted of two groups, Group 1 and Group 2. Animals in Group 1 were given intravenous bolus dose in a vehicle containing 5% N,N-dimethylacetamide, 5% CREMOPHOR™ EL and 90% Dextrose solution (5% w/v) and those in Group 2 were given oral solution dose in a vehicle, the composition of which was same as that of intravenous formulation. In addition, the effect of Test Item on complete blood count was evaluated following intravenous and oral dose administration along with its vehicle controls. A total of four groups were used each with 6 mice.
From the pharmacokinetic group, predose samples were collected from 3 animals in each group. Following dose administration terminal blood samples were collected at each of the following time points (in triplicate): 0.083 (only for intravenous), 0.25, 0.5, 1, 2, 4, 8, 12 and 24 hours. At each time point, approximately 500 μL of whole blood was withdrawn from the retro orbital sinus and collected in labeled tubes containing dipotassium EDTA as anticoagulant (20 μL of 200 mM K2 EDTA solution per mL of blood). Plasma was separated by centrifuging the whole blood at about 2500 g for 10 minutes at 4° C. within 1 h of sample collection. Separated plasma was stored below minus 50° C. until bioanalysis. A sensitive LC-MS/MS method was used for the quantitation of 1H-indole-3-carbaldehyde quinolin-8-ylhydrazone. The lower limit of quantitation was 1.04 ng/mL. For CBC evaluation, approximately 500 μL of blood was collected in labeled tubes containing dipotassium EDTA as anticoagulant (10 […]/mL of blood) after 48 h of dose administration from all animals.
A total of 57 mice were divided into an intravenous dose group of 30 mice (Group 1) and oral dose group of 27 mice (Group 2). Animals in Group 1 received intravenous bolus dose via tail vein at 3 mg/kg and animals in Group 2 received oral solution dose via gavage at 15 mg/kg. Three animals were administered the dose for each time point (intravenous: 10 time points; Oral: 9 time points). Terminal blood samples were collected from each mouse under light ether anesthesia and plasma was separated.
Animals in Group 1 were administered an intravenous bolus dose via the tail vein (dosing volume: 6 mL/kg). Animals in Group 2 received oral dose by gavage with an oral dosing needle (dosing volume: 10 mL/kg). Animals in the CBC evaluation group were treated same as above except the animals in control group received vehicle instead of formulation.
Pharmacokinetic group: Predose samples were collected from 3 animals in each group. Following dose administration terminal blood samples were collected at each of the following time points (in triplicate): 0.083 (only for intravenous), 0.25, 0.5, 1, 2, 4, 8, 12 and 24 hours. For each time point, approximately 500 μL of whole blood was withdrawn from the retro orbital sinus and collected in labeled tubes containing dipotassium EDTA as anticoagulant (20 μL of 200 mM K2 EDTA solution per mL of blood). Plasma was separated by centrifuging the whole blood at about 2500 g for 10 minutes at 4° C. within 1 h of sample collection. Separated plasma was stored below minus 50° C. until bioanalysis.
An LC-MS/MS method was developed and employed for the quantitation of 1H-indole-3-carbaldehyde quinolin-8-ylhydrazone in the mouse plasma samples. The samples were prepared for analysis following liquid-liquid extraction using amodiaquin as internal standard. The lower limit of quantitation was 1.04 ng/mL.
Pharmacokinetic parameters were calculated using non-compartmental analysis tool of WINNONLIN™ Enterprise software (Version 5.1.1). […]

[1] = mouse plasma, IV 3 mg/kg, 0.25 h samples, listed as ICQH, 3 mg/kg
[2] = mouse, intravenous bolus 3 mg/kg, 24 h, BLQ = below LLOQ 1.04 ng/mL
[3] = mouse, oral solution 15 mg/kg, 24 h, BLQ = below LLOQ 1.04 ng/mL

C(=NNc1cccc2cccnc12)c1c[nH]c2ccccc12 [Compound C3, 1H-indole-3-carbaldehyde quinolin-8-ylhydrazone]
Accepted conc. (repeat analysis) [1]: 199.60 c ng/mL and 225.35 c ng/mL
Initial conc. (repeat analysis) [1]: 132.16 ng/mL
Repeated conc. (repeat analysis) [1]: 225.35 ng/mL
Clearance as share of liver blood flow (mouse, IV 3 mg/kg): about 60 % of liver blood flow
Volume of distribution (mouse, IV 3 mg/kg): 4.28 Ukg
Volume of distribution relative to total body water (mouse, IV 3 mg/kg): about 6 times of total body water
Time till which plasma concentrations were quantifiable (mouse, following both intravenous (3 mg/kg) and oral (15 mg/kg) administration): 12 h
Individual plasma concentration (mouse, intravenous bolus 3 mg/kg, 0.083 h, LLOQ 1.04 ng/mL, 3 mg/kg): 2253.61 ng/mL and 1125.73 ng/mL and 75.62 b ng/mL
Individual plasma concentration (mouse, intravenous bolus 3 mg/kg, 0.083 h, LLOQ 1.04 ng/mL, listed as ICQH, 3 mg/kg): 2253.61 ng/mL and 1125.73 ng/mL and 75.62 ng/mL
Individual plasma concentration (mouse, intravenous bolus 3 mg/kg, 0.25 h, LLOQ 1.04 ng/mL, 3 mg/kg): 307.05 ng/mL and 225.35 ng/mL
Individual plasma concentration (mouse, intravenous bolus 3 mg/kg, 0.25 h, LLOQ 1.04 ng/mL, listed as ICQH, 3 mg/kg): 199.60 ng/mL and 307.05 ng/mL and 225.35 ng/mL
Individual plasma concentration (mouse, intravenous bolus 3 mg/kg, 0.5 h, LLOQ 1.04 ng/mL, 3 mg/kg): 388.25 ng/mL and 148.82 ng/mL and 339.56 ng/mL
Individual plasma concentration (mouse, intravenous bolus 3 mg/kg, 0.5 h, LLOQ 1.04 ng/mL, listed as ICQH, 3 mg/kg): 388.25 ng/mL and 148.82 ng/mL and 339.56 ng/mL
Individual plasma concentration (mouse, intravenous bolus 3 mg/kg, 1 h, LLOQ 1.04 ng/mL, 3 mg/kg): 184.80 ng/mL and 140.18 ng/mL
Individual plasma concentration (mouse, intravenous bolus 3 mg/kg, 1 h, LLOQ 1.04 ng/mL, listed as ICQH, 3 mg/kg): 184.80 ng/mL and 116.46 ng/mL and 140.18 ng/mL
Individual plasma concentration (mouse, intravenous bolus 3 mg/kg, 2 h, LLOQ 1.04 ng/mL, 3 mg/kg): 76.60 ng/mL and 47.02 ng/mL
Individual plasma concentration (mouse, intravenous bolus 3 mg/kg, 2 h, LLOQ 1.04 ng/mL, listed as ICQH, 3 mg/kg): 71.88 ng/mL and 76.60 ng/mL and 47.02 ng/mL
Individual plasma concentration (mouse, intravenous bolus 3 mg/kg, 4 h, LLOQ 1.04 ng/mL, 3 mg/kg): 27.25 ng/mL and 38.13 ng/mL
Individual plasma concentration (mouse, intravenous bolus 3 mg/kg, 4 h, LLOQ 1.04 ng/mL, listed as ICQH, 3 mg/kg): 42.37 ng/mL and 27.25 ng/mL and 38.13 ng/mL
Individual plasma concentration (mouse, intravenous bolus 3 mg/kg, 8 h, LLOQ 1.04 ng/mL, 3 mg/kg): 5.65 ng/mL and 11.10 ng/mL
Individual plasma concentration (mouse, intravenous bolus 3 mg/kg, 8 h, LLOQ 1.04 ng/mL, listed as ICQH, 3 mg/kg): 10.11 ng/mL and 5.65 ng/mL and 11.10 ng/mL
Individual plasma concentration (mouse, intravenous bolus 3 mg/kg, 12 h, BLQ = below LLOQ 1.04 ng/mL, 3 mg/kg): 2.20 ng/mL and BLQ
Individual plasma concentration (mouse, intravenous bolus 3 mg/kg, 12 h, BLQ = below LLOQ 1.04 ng/mL, listed as ICQH, 3 mg/kg): 1.68 ng/mL and 2.20 ng/mL and BLQ
Mean plasma concentration [2]: BLQ
Individual plasma concentration [2]: BLQ
Time of maximum concentration post-dose (mouse, oral solution 15 mg/kg): 1.0 h
Individual plasma concentration (mouse, oral solution 15 mg/kg, 0.25 h, LLOQ 1.04 ng/mL): 53.05 ng/mL and 113.38 ng/mL and 254.20 ng/mL
Individual plasma concentration (mouse, oral solution 15 mg/kg, 0.25 h, LLOQ 1.04 ng/mL, listed as ICQH): 53.05 ng/mL and 113.38 ng/mL and 254.20 ng/mL
Individual plasma concentration (mouse, oral solution 15 mg/kg, 0.5 h, LLOQ 1.04 ng/mL): 96.22 ng/mL and 72.56 ng/mL and 273.76 ng/mL
Individual plasma concentration (mouse, oral solution 15 mg/kg, 0.5 h, LLOQ 1.04 ng/mL, listed as ICQH): 96.22 ng/mL and 72.56 ng/mL and 273.76 ng/mL
Individual plasma concentration (mouse, oral solution 15 mg/kg, 1 h, LLOQ 1.04 ng/mL): 143.63 ng/mL and 32.21 ng/mL and 422.48 ng/mL
Individual plasma concentration (mouse, oral solution 15 mg/kg, 1 h, LLOQ 1.04 ng/mL, listed as ICQH): 143.63 ng/mL and 32.21 ng/mL and 422.48 ng/mL
Individual plasma concentration (mouse, oral solution 15 mg/kg, 2 h, LLOQ 1.04 ng/mL): 51.85 ng/mL and 95.13 ng/mL and 142.67 ng/mL
Individual plasma concentration (mouse, oral solution 15 mg/kg, 2 h, LLOQ 1.04 ng/mL, listed as ICQH): 51.85 ng/mL and 95.13 ng/mL and 142.67 ng/mL
Individual plasma concentration (mouse, oral solution 15 mg/kg, 4 h, LLOQ 1.04 ng/mL): 185.50 ng/mL and 87.82 ng/mL and 164.88 ng/mL
Individual plasma concentration (mouse, oral solution 15 mg/kg, 4 h, LLOQ 1.04 ng/mL, listed as ICQH): 185.50 ng/mL and 87.82 ng/mL and 164.88 ng/mL
Individual plasma concentration (mouse, oral solution 15 mg/kg, 8 h, LLOQ 1.04 ng/mL): 71.29 ng/mL and 78.06 ng/mL
Individual plasma concentration (mouse, oral solution 15 mg/kg, 8 h, LLOQ 1.04 ng/mL, listed as ICQH): 76.65 ng/mL and 71.29 ng/mL and 78.06 ng/mL
Individual plasma concentration (mouse, oral solution 15 mg/kg, 12 h, LLOQ 1.04 ng/mL): 4.05 ng/mL and 11.47 ng/mL and 11.21 ng/mL
Individual plasma concentration (mouse, oral solution 15 mg/kg, 12 h, LLOQ 1.04 ng/mL, listed as ICQH): 4.05 ng/mL and 11.47 ng/mL and 11.21 ng/mL
Mean plasma concentration [3]: BLQ
Individual plasma concentration [3]: BLQ
